Measurements as given in patent US20250230138A1, “COMPOUNDS HAVING A T-STRUCTURE FORMED BY AT LEAST FOUR CYCLES FOR USE IN THE TREATMENT OF CANCER AND OTHER INDICATIONS” (TheRas, Inc., priority 2022, published 2025).
Like-named read-outs stand apart in the source and are kept apart here.

Key:
[1] = target: Cys242 in human PIK3CA (157-299) (Homo sapiens (Human), UniProt P42336); assay: Covalent modification assay using MALDI-TOF MS; type: biochemical; settings: 4 h reaction time point
Method in brief: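 Covalent adduct formation was read by linear-mode MALDI-TOF with sinapinic acid matrix, reported as modified-protein peak height divided by total protein peak heights. Reactions held PIK3CA (157-299) at 1 or 3.33 μM in HEPES/NaCl/MgCl2 buffer, pH 7.3, sampled after 15 min to 4 h at room temperature.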

pAKT in BT474 cells = assay: Cell-based pAKT HTRF assay in BT474 cells; settings: BT474 cells, 4 hr incubation, read-out: pAKT inhibition IC50 in BT474 cells
Method in brief: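 BT474 cells in DMEM/10% FBS were treated the day after seeding with a 9-point, 3-fold compound series from 3 μM (0.25% DMSO) for 4 hr. Lysates were mixed with d2 and Eu cryptate anti-pAKT antibodies and incubated 4-24 h at room temperature. HTRF was read with excitation at 320 nm and emission at 615 nm.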

[2] = 3.33 μM protein target, 1:7.5 protein to compound ratio (compounds 1-852)
[3] = 1 μM protein target, 1:5 protein to compound ratio (compounds 853-1279)
[4] = Homo sapiens, BT-474, Compounds 10-999

Sequence of Cys242 in human PIK3CA (157-299) (P42336 157-299): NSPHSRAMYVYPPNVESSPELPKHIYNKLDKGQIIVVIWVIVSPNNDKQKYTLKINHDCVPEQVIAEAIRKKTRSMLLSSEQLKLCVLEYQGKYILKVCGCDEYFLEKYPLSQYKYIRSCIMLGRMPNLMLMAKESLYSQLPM

**Q.** Which results are given for C=CC(=O)N1CCn2nc(-c3nc(-c4ccc5ncn(C)c5c4)c4ccsc4c3-c3c(F)cc(F)cc3OCCO)cc2[C@@H]1C [Compound 645]?
**A.** % of modification [1, 2]: A (percent of modification of PIK3CA protein ≥75%); IC50 (pAKT in BT474 cells; Compounds 10-999): < 100 nM

**Q.** Which results are given for C=CC(=O)N1CCn2nc(-c3nc(-c4ccc5c(c4)C(=O)NC5)c4ccsc4c3-c3c(F)cc(F)cc3OCC(C)O)cc2C1C (stereo not drawn) [Compound 879]?
**A.** % of modification [1, 3]: A (percent of modification of PIK3CA protein ≥75%); IC50 (pAKT in BT474 cells; Compounds 10-999): < 100 nM

**Q.** For C#CC(=O)N1CCn2nc(-c3nc(-c4ccc5c(cnn5C)c4)c4ccsc4c3-c3c(F)cc(F)cc3OCCOC)cc2[C@H]1C [Compound 1229], which “% of modification” value [1, 3] is on record?
**A.** Its value is “A (percent of modification of PIK3CA protein ≥75%)”.

**Q.** What about the IC50 (pAKT in BT474 cells; Compounds 1000-1279) of the same compound?
**A.** Its IC50 is greater than 1000 nM.

**Q.** How did the “% of modification” value [1, 2] turn out when C=CC(=O)N1CCc2ncc(-c3nc(-c4ccc(=O)n(C)c4)c4ccsc4c3-c3c(F)cc(F)cc3OC(C)C)cc2C1 [Compound 330] was run?
**A.** The value was “A (percent of modification of PIK3CA protein ≥75%)”.

**Q.** And the IC50 (pAKT in BT474 cells; Compounds 10-999)?
**A.** Its IC50 is less than 100 nM.

**Q.** C=CC(=O)N1CCn2nc(-c3nc(-c4cn(C)cn4)c4ccsc4c3-c3c(F)cc(F)cc3OC[C@@H](C)O)cc2[C@H]1C [Compound 744] was tested. Which “% of modification” value [1, 2] did it give?
**A.** The value was “A (percent of modification of PIK3CA protein ≥75%)”.

**Q.** And the IC50 (pAKT in BT474 cells; Compounds 10-999)?
**A.** The IC50 was less than 100 nM.

**Q.** Which results are given for C=CC(=O)N1CCc2nc(-c3nc(-c4ccc5c(c4)CN(C)CC5(F)F)c4ccsc4c3-c3c(F)cc(F)cc3OCCOC)sc2C1 [Compound 1276]?
**A.** % of modification [1, 3]: A (percent of modification of PIK3CA protein ≥75%); IC50 (pAKT in BT474 cells; Compounds 1000-1279): 100 to 1000 nM

**Q.** C=CC(=O)N1CCc2cc(-c3nc(-c4cnn(C)c4)c4ccsc4c3-c3c(F)cc(F)cc3OC(C)C)nn2CC1 [Compound 569] was tested. Which “% of modification” value [1, 2] did it give?
**A.** The value was “A (percent of modification of PIK3CA protein ≥75%)”.

**Q.** And the IC50 (pAKT in BT474 cells; Compounds 10-999)?
**A.** Its IC50 is less than 100 nM.

**Q.** Which results are given for C=CC(=O)N1CCn2nc(-c3nc(-c4ccc5c(c4)CCN(C)C5)c4ccsc4c3-c3c(F)cc(F)cc3OCCO)cc2C1C (stereo not drawn) [Compound 533]?
**A.** % of modification [1, 2]: A (percent of modification of PIK3CA protein ≥75%); IC50 (pAKT in BT474 cells; Compounds 10-999): < 100 nM

**Q.** C=CC(=O)N1CCc2ncc(-c3nc(-c4ccc5c(c4)C(O)CC5)c4ccsc4c3-c3c(F)cc(F)cc3OCCOC)cc2C1 (stereo not drawn) [Compound 397] was tested. Which “% of modification” value [1, 2] did it give?
**A.** The value was “A (percent of modification of PIK3CA protein ≥75%)”.

**Q.** And the IC50 (pAKT in BT474 cells; Compounds 10-999)?
**A.** Its IC50 is less than 100 nM.

**Q.** For C=CC(=O)N1CCc2nc(-c3nc(-c4ccc(C5(N)COC5)cc4)c4ccsc4c3-c3c(F)cc(F)cc3OCCOC)sc2C1 [Compound 426], which “% of modification” value [1, 2] is on record?
**A.** Its value is “A (percent of modification of PIK3CA protein ≥75%)”.

**Q.** And the IC50 (pAKT in BT474 cells; Compounds 10-999)?
**A.** The IC50 was less than 100 nM.

**Q.** How did the “% of modification” value [1, 3] turn out when C=CC(=O)N1CCn2nc(-c3nc(-c4ccc([C@H](NC)C(F)(F)F)cc4)c4ccsc4c3-c3c(F)cc(F)cc3OCCOC)cc2[C@H]1C (single isomer, unassigned) [Compound 1149] was run?
**A.** The value was “A (percent of modification of PIK3CA protein ≥75%)”.

**Q.** What about the IC50 (pAKT in BT474 cells; Compounds 1000-1279) of the same compound?
**A.** Its IC50 is less than 100 nM.

**Q.** For C=CC(=O)N1CCc2nc(-c3nc(-c4ccc(C(C)(C)O)cc4)c4ccsc4c3-c3c(F)cc(F)cc3OCCOC)sc2C1 [Compound 419], which “% of modification” value [1, 2] is on record?
**A.** Its value is “A (percent of modification of PIK3CA protein ≥75%)”.

**Q.** What about the IC50 (pAKT in BT474 cells; Compounds 10-999) of the same compound?
**A.** Its IC50 is 100 to 1000 nM.

**Q.** How did the “% of modification” value [1, 3] turn out when C=CC(=O)N1CCn2nc(-c3nc(-c4ccc(C5(C(=O)NC6CN(C)C6)CC5)cc4)c4ccsc4c3-c3c(F)cc(F)cc3OCCOC)cc2C1C (stereo not drawn) [Compound 1157] was run?
**A.** Its value is “A (percent of modification of PIK3CA protein ≥75%)”.

**Q.** What about the IC50 (pAKT in BT474 cells; Compounds 1000-1279) of the same compound?
**A.** Its IC50 is 100 to 1000 nM.

**Q.** For C=CC(=O)N1CC(n2cc(-c3nc(-c4ccc5c(c4)CCNC5)c4ccsc4c3-c3ccc(F)cc3OC)ccc2=O)C1 [Compound 110, 5-[7-(4-fluoro-2-methoxy-phenyl)-4-(1,2,3,4-tetrahydroisoquinolin-6-yl)thieno[3,2-c]pyridin-6-yl]-1-(1-prop-2-enoylazetidin-3-yl)pyridin-2-one], which “% of modification” value [1, 2] is on record?
**A.** Its value is “A (percent of modification of PIK3CA protein ≥75%)”.

**Q.** And the IC50 (pAKT in BT474 cells; [4])?
**A.** The IC50 was 100 to 1000 nM.

**Q.** C=CC(=O)N1CC(n2cc(-c3nc(-c4ccc5c(c4)CNC(=O)C5)c4ccsc4c3-c3ccc(F)cc3OC)cn2)C1 [Compound 79] was tested. Which “% of modification” value [1, 2] did it give?
**A.** Its value is “A (percent of modification of PIK3CA protein ≥75%)”.

**Q.** And the IC50 (pAKT in BT474 cells; Compounds 10-999)?
**A.** Its IC50 is less than 100 nM.

**Q.** How did the “% of modification” value [1, 2] turn out when C=C(F)C(=O)N1CCn2nc(-c3nc(-c4ccc5c(c4)CNC5=O)c4ccsc4c3-c3c(F)cc(F)cc3OC[C@@H](C)O)cc2C1 [Compound 517] was run?
**A.** The value was “B (50%<percent of modification <75%)”.

**Q.** And the IC50 (pAKT in BT474 cells; Compounds 10-999)?
**A.** The IC50 was 100 to 1000 nM.

**Q.** For C=C(F)C(=O)N1CCn2nc(-c3nc(-c4ccc5c(c4)CCNC5=O)c4ccsc4c3-c3ccc(F)cc3OC(C)C)cc2C1 [Compound 258, 6-[7-(4-fluoro-2-isopropoxy-phenyl)-6-[5-(2-fluoroprop-2-enoyl)-6,7-dihydro-4H-pyrazolo[1,5-a]pyrazin-2-yl]thieno[3,2-c]pyridin-4-yl]-3,4-dihydro-2H-isoquinolin-1-one], which “% of modification” value [1, 2] is on record?
**A.** Its value is “B (50%<percent of modification <75%)”.

**Q.** What about the IC50 (pAKT in BT474 cells; [4]) of the same compound?
**A.** The IC50 was less than 100 nM.

**Q.** CC#CC(=O)N1CCn2nc(-c3nc(-c4ccc5c(cnn5C)c4)c4ccsc4c3-c3c(F)cc(F)cc3OCCOC)cc2[C@H]1C [Compound 1227] was tested. Which “% of modification” value [1, 3] did it give?
**A.** Its value is “B (50%<percent of modification <75%)”.

**Q.** What about the IC50 (pAKT in BT474 cells; Compounds 1000-1279) of the same compound?
**A.** The IC50 was 100 to 1000 nM.
